Laboratory results published in patent publication US20060069132A1, “Azolecarboxamide herbicides” (priority 2004, published 2006).

Columns and labels:
morningglory [1] = experiment: Test A pre-/postemergence herbicide test; format: in vivo, Ipomoea spp.
In short: (§1)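 Visual injury scores on a 0–100 scale (100 = complete control) taken about ten days post-treatment in greenhouse against untreated controls; dash means no result. Treatments: preemergence soil spray and postemergence spray to runoff on one- to two-leaf plants 2 to 10 cm tall, surfactant-containing formulation.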

redroot pigweed = experiment: Test A pre-/postemergence herbicide test; format: in vivo, Amaranthus retroflexus
In short: as §1

velvetleaf = experiment: Test A pre-/postemergence herbicide test; format: in vivo, Abutilon theophrasti
In short: as §1

bermudagrass = experiment: Test C pre-/postemergence herbicide test; format: in vivo, Cynodon dactylon; conditions: for Bermudagrass plant response rating: 500 g ai/ha
In short: (§2)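 Visual ratings on a 0–100 scale (100 = complete control) made versus untreated controls after 12 to 14 greenhouse days. Test chemicals, formulated in surfactant-containing non-phytotoxic solvent, applied preemergence to planted seeds or postemergence to 1- to 4-leaf plants (2 to 18 cm).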

giant foxtail = experiment: Test C pre-/postemergence herbicide test; format: in vivo, Setaria faberi; conditions: for Foxtail, Giant plant response rating: 500 g ai/ha
In short: as §2

lambsquarters = experiment: Test C pre-/postemergence herbicide test; format: in vivo, Chenopodium album; conditions: for Lambsquarters plant response rating: 500 g ai/ha
In short: as §2

morningglory [2] = experiment: Test C pre-/postemergence herbicide test; format: in vivo, Ipomoea coccinea; design: key to Plant response rating, Morningglory: 0 = no effect, 100 = complete control; conditions: for Morningglory plant response rating: 500 g ai/ha
In short: as §2

eastern black nightshade = experiment: Test C pre-/postemergence herbicide test; format: in vivo, Solanum ptycanthum; conditions: for Plant response rating (0 = no effect, 100 = complete control), Nightshade: 62 g ai/ha
In short: as §2

yellow nutsedge = experiment: Test C pre-/postemergence herbicide test; format: in vivo, Cyperus esculentus; conditions: for Nutsedge, Yellow plant response rating: 500 g ai/ha
In short: as §2

common ragweed = experiment: Test C pre-/postemergence herbicide test; format: in vivo, Ambrosia elatior; design: key to Plant response rating, Ragweed: 0 = no effect, 100 = complete control; conditions: for Ragweed plant response rating: 500 g ai/ha
In short: as §2

chickweed = experiment: Test C postemergence herbicide test; format: in vivo, Stellaria media
In short: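 Weeds and wheat were sprayed after emergence, at a height of 2 to 18 cm (1–4 leaves), and paddy barnyardgrass was flooded and treated at two leaves. Assessment took place 12–14 days later in the greenhouse on a 0-to-100 visual control scale. A dash means no result was obtained.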

[3] = Postemergence, 500 g ai/ha, 0 to 100 scale, 0 no effect, 100 complete control
[4] = Postemergence, 2000 g ai/ha, 0 to 100 scale, 0 no effect, 100 complete control
[5] = Preemergence, 500 g ai/ha, visual rating, 0 to 100 scale (0 no effect, 100 complete control)
[6] = Preemergence, 2000 g ai/ha, visual rating, 0 to 100 scale (0 no effect, 100 complete control)
[7] = preemergence, 500 g ai/ha, visual injury, 0 to 100 scale (0 no effect, 100 complete control)
[8] = 125 g ai/ha, scale 0 (no effect) to 100 (complete control), visual, 12 to 14 days, preemergence
[9] = 250 g ai/ha, scale 0 to 100 (0 no effect, 100 complete control), visual, 12 to 14 days, preemergence
[10] = Postemergence, 250 g ai/ha, scale 0 to 100, 0 no effect, 100 complete control
[11] = Preemergence, scale 0 to 100, 0 no effect, 100 complete control
[12] = postemergence, 125 g ai/ha, scale 0 to 100
[13] = Preemergence, 2000 g ai/ha, 0 to 100 scale, 0 no effect, 100 complete control
[14] = 31 g ai/ha, preemergence, scale 0 to 100
[15] = 125 g ai/ha, scale 0-100, preemergence
[16] = Postemergence, 125 g ai/ha, scale 0 to 100, 0 no effect, 100 complete control
[17] = postemergence, 16 g ai/ha, scale 0 to 100
[18] = postemergence, 31 g ai/ha, scale 0 to 100
[19] = postemergence, 62 g ai/ha, scale 0 to 100

In the case of `CCn1nc(C(C)(C)C)cc1C(=O)Nc1cccc(SC(F)(F)F)c1` [Compound 130], the “Morningglory plant response rating” value (morningglory [1]; [3]) is reported as 20, the “Plant response rating, Morningglory” value (morningglory [1]; [4]) is reported as 25 and the “Morningglory plant response rating” value (morningglory [1]; [5]) is reported as 10. The “Morningglory plant response rating” value (morningglory [1]; [6]) was 15, the “Pigweed plant response rating” value (redroot pigweed; [3]) was 50 and the “Plant response rating, Pigweed” value (redroot pigweed; [4]) was 65. For the same molecule, the “Pigweed plant response rating” value (redroot pigweed; [6]) was 65, the “Pigweed plant response rating” value (redroot pigweed; [7]) was 35 and the “Velvetleaf plant response rating” value (velvetleaf; [3]) was 20. For the same molecule, the “Plant response rating, Velvetleaf” value (velvetleaf; [4]) was 20, the “Velvetleaf plant response rating” value (velvetleaf; [6]) was 30 and the “Velvetleaf plant response rating” value (velvetleaf; [7]) was 20. The “Plant response rating (0 = no effect, 100 = complete control), Bermudagrass” value (bermudagrass; 62 g ai/ha, preemergence) was 60, the “Plant response rating, Bermudagrass” value (bermudagrass; [8]) was 90 and the “Plant response rating, Bermudagrass” value (bermudagrass; [9]) was 100. The “Bermudagrass plant response rating” value (bermudagrass; Postemergence, scale 0 to 100) was 90, the “Plant response rating, Bermudagrass” value (bermudagrass; [10]) was 90 and the “Bermudagrass plant response rating” value (bermudagrass; [11]) was 100. The “Plant response rating, Bermudagrass” value (bermudagrass; [12]) was 85, the “Plant response rating (0 = no effect, 100 = complete control), Foxtail, Giant” value (giant foxtail; 62 g ai/ha, preemergence) was 40 and the “Plant response rating, Foxtail, Giant” value (giant foxtail; [8]) was 45. For the same molecule, the “Plant response rating, Foxtail, Giant” value (giant foxtail; [9]) was 65, the “Foxtail, Giant plant response rating” value (giant foxtail; Postemergence, scale 0 to 100) was 30 and the “Plant response rating, Foxtail, Giant” value (giant foxtail; [10]) was 15. The “Foxtail, Giant plant response rating” value (giant foxtail; [11]) was 95, the “Plant response rating, Foxtail, Giant” value (giant foxtail; [12]) was 10 and the “Plant response rating (0 = no effect, 100 = complete control), Lambsquarters” value (lambsquarters; 62 g ai/ha, preemergence) was 10. For the same molecule, the “Plant response rating, Lambsquarters” value (lambsquarters; [8]) was 30, the “Lambsquarters plant response rating” value (lambsquarters; Postemergence, scale 0 to 100) was 100 and the “Plant response rating, Lambsquarters” value (lambsquarters; [10]) was 100. For the same molecule, the “Lambsquarters plant response rating” value (lambsquarters; [11]) was 80, the “Plant response rating, Lambsquarters” value (lambsquarters; [12]) was 100 and the “Plant response rating (0 = no effect, 100 = complete control), Morningglory” value (morningglory [2]; 62 g ai/ha, preemergence) was 0. The “Plant response rating, Morningglory” value (morningglory [2]; [8]) was 0, the “Morningglory plant response rating” value (morningglory [2]; Postemergence, scale 0 to 100) was 100 and the “Plant response rating, Morningglory” value (morningglory [2]; [10]) was 80. The “Morningglory plant response rating” value (morningglory [2]; [11]) was 30, the “Plant response rating, Morningglory” value (morningglory [2]; [12]) was 40 and the “Plant response rating (0 = no effect, 100 = complete control), Nightshade” value (eastern black nightshade; preemergence) was 30. The “Nightshade plant response rating” value (eastern black nightshade; Preemergence, 500 g ai/ha, scale 0 to 100, 0 no effect, 100 complete control) was 60, the “Plant response rating (0 = no effect, 100 = complete control), Nutsedge, Yellow” value (yellow nutsedge; 62 g ai/ha, preemergence) was 0 and the “Plant response rating, Nutsedge, Yellow” value (yellow nutsedge; [8]) was 0. The “Nutsedge, Yellow plant response rating” value (yellow nutsedge; Postemergence, scale 0 to 100) was 0, the “Plant response rating, Nutsedge, Yellow” value (yellow nutsedge; [10]) was 0 and the “Nutsedge, Yellow plant response rating” value (yellow nutsedge; [11]) was 0. For the same molecule, the “Plant response rating, Nutsedge, Yellow” value (yellow nutsedge; [12]) was 0, the “Plant response rating (0 = no effect, 100 = complete control), Ragweed” value (common ragweed; 62 g ai/ha, preemergence) was 0 and the “Plant response rating, Ragweed” value (common ragweed; [8]) was 10. For the same molecule, the “Ragweed plant response rating” value (common ragweed; Postemergence, scale 0 to 100) was 85, the “Plant response rating, Ragweed” value (common ragweed; [10]) was 85 and the “Ragweed plant response rating” value (common ragweed; [11]) was 80. The “Plant response rating, Ragweed” value (common ragweed; [12]) was 40, the “Chickweed plant response rating” value (chickweed; Postemergence, 500 g ai/ha, scale 0 to 100) was 100 and the “Plant response rating, Chickweed” value (chickweed; [10]) was 100. The “Plant response rating, Chickweed” value (chickweed; [12]) was 100.
With `C=Cn1nc(C(C)(C)C)cc1C(=O)Nc1cccc(C(=O)NCC)c1` [Compound 33] the “Plant response rating, Morningglory” value (morningglory [1]; [3]) was 10, the “Plant response rating, Morningglory” value (morningglory [1]; [4]) was 25 and the “Morningglory plant response rating” value (morningglory [1]; [5]) was 35. For the same molecule, the “Morningglory plant response rating” value (morningglory [1]; [13]) was 70, the “Plant response rating, Pigweed” value (redroot pigweed; [3]) was 85 and the “Plant response rating, Pigweed” value (redroot pigweed; [4]) was 85. The “Pigweed plant response rating” value (redroot pigweed; [5]) was 100, the “Pigweed plant response rating” value (redroot pigweed; [13]) was 100 and the “Plant response rating, Velvetleaf” value (velvetleaf; [3]) was 30. For the same molecule, the “Plant response rating, Velvetleaf” value (velvetleaf; [4]) was 40, the “Velvetleaf plant response rating” value (velvetleaf; [5]) was 20 and the “Velvetleaf plant response rating” value (velvetleaf; [13]) was 80. For the same molecule, the “Plant response rating, Bermudagrass” value (bermudagrass; 16 g ai/ha, scale 0 to 100, 0 no effect, 100 complete control, last section of Table C (species set of preemergence test)) was 30, the “Plant response rating, Bermudagrass” value (bermudagrass; [14]) was 50 and the “Plant response rating (0 = no effect, 100 = complete control), Bermudagrass” value (bermudagrass; 62 g ai/ha, preemergence) was 80. For the same molecule, the “Plant response rating, Bermudagrass” value (bermudagrass; [15]) was 90, the “Plant response rating, Bermudagrass” value (bermudagrass; [16]) was 30 and the “Plant response rating, Bermudagrass” value (bermudagrass; [17]) was 0. For the same molecule, the “Plant response rating, Bermudagrass” value (bermudagrass; [18]) was 20, the “Plant response rating, Bermudagrass” value (bermudagrass; [19]) was 20 and the “Plant response rating, Foxtail, Giant” value (giant foxtail; [14]) was 10. The “Plant response rating (0 = no effect, 100 = complete control), Foxtail, Giant” value (giant foxtail; 62 g ai/ha, preemergence) was 20, the “Plant response rating, Foxtail, Giant” value (giant foxtail; [15]) was 60 and the “Plant response rating, Foxtail, Giant” value (giant foxtail; [16]) was 30. The “Plant response rating, Foxtail, Giant” value (giant foxtail; [18]) was 30, the “Plant response rating, Foxtail, Giant” value (giant foxtail; [19]) was 30 and the “Plant response rating, Lambsquarters” value (lambsquarters; [14]) was 80. The “Plant response rating (0 = no effect, 100 = complete control), Lambsquarters” value (lambsquarters; 62 g ai/ha, preemergence) was 100, the “Plant response rating, Lambsquarters” value (lambsquarters; [15]) was 100 and the “Plant response rating, Lambsquarters” value (lambsquarters; [12]) was 90. For the same molecule, the “Plant response rating, Lambsquarters” value (lambsquarters; [18]) was 90, the “Plant response rating, Lambsquarters” value (lambsquarters; [19]) was 90 and the “Plant response rating, Morningglory” value (morningglory [2]; [14]) was 0. For the same molecule, the “Plant response rating (0 = no effect, 100 = complete control), Morningglory” value (morningglory [2]; 62 g ai/ha, preemergence) was 0, the “Plant response rating, Morningglory” value (morningglory [2]; [12]) was 30 and the “Plant response rating, Morningglory” value (morningglory [2]; [18]) was 20. The “Plant response rating, Morningglory” value (morningglory [2]; [19]) was 20, the “Plant response rating, Nightshade” value (eastern black nightshade; [14]) was 10 and the “Plant response rating (0 = no effect, 100 = complete control), Nightshade” value (eastern black nightshade; preemergence) was 60. For the same molecule, the “Plant response rating, Nutsedge, Yellow” value (yellow nutsedge; 16 g ai/ha, scale 0 to 100, last section of Table C, preemergence) was 0, the “Plant response rating, Nutsedge, Yellow” value (yellow nutsedge; [14]) was 0 and the “Plant response rating (0 = no effect, 100 = complete control), Nutsedge, Yellow” value (yellow nutsedge; 62 g ai/ha, preemergence) was 0. For the same molecule, the “Plant response rating, Nutsedge, Yellow” value (yellow nutsedge; [12]) was 10, the “Plant response rating, Nutsedge, Yellow” value (yellow nutsedge; [18]) was 0 and the “Plant response rating, Nutsedge, Yellow” value (yellow nutsedge; [19]) was 0. The “Plant response rating, Ragweed” value (common ragweed; [14]) was 0, the “Plant response rating (0 = no effect, 100 = complete control), Ragweed” value (common ragweed; 62 g ai/ha, preemergence) was 0 and the “Plant response rating, Ragweed” value (common ragweed; [12]) was 70. The “Plant response rating, Ragweed” value (common ragweed; [19]) was 60, the “Plant response rating, Chickweed” value (chickweed; [16]) was 100 and the “Plant response rating, Chickweed” value (chickweed; [17]) was 30. The “Plant response rating, Chickweed” value (chickweed; [18]) was 40 and the “Plant response rating, Chickweed” value (chickweed; [19]) was 90.
